From PubChem BioAssay AID250 (DTP/NCI, 2004) come the findings set out here.

This test has as its system BDF1 mice, L1210 leukemia sc, survival T/C. Put plainly: NCI In Vivo Anticancer Drug Screen. Data for tumor model L1210 Leukemia (subcutaneous) in B6D2F1 (BDF1) mice. The conditions noted are these: endpoint: median survival time, higher = longer survival. Here is the method:
The antitumor activity of compounds was measured in mice bearing transplantable tumors. Survival or tumor size were measured and the results are expressed as the measurement made in the treated group (T) divided by the measurement made in the vehicle treated control group (C). The tumor model used in this assay is L1210 Leukemia (subcutaneous) in B6D2F1 (BDF1) mice

Setting [1] is: dose: 1.8 mg/kg/injection, schedule: Q01DX Z (sc), vehicle: saline.
Where [2] appears, read: dose: 3.0 mg/kg/injection, schedule: Q01DX Z (sc), vehicle: saline.
[3] abbreviates: dose: 108.0 mg/kg/injection, schedule: Q01DX Z (sc), vehicle: methylcellulose (MC).
Where [4] appears, read: dose: 300.0 mg/kg/injection, schedule: Q01DX Z (sc), vehicle: methylcellulose (MC).

Inconclusive results and toxic doses are left out. Numbered stars: 1 amine (or outer) side, 2 acyl side, 3 side chain; on linkers, the order of the positions; unused ones are H or OH. Bridge positions count the residues as written; N and C are the ends. Square brackets hold non-standard residues; d marks the D form. Peptide text beside a SMILES is read from it. I, II: the chains in the order shown. Actinocin(9to1) = Cc1c2oc3c(C)ccc(C(=O)[*:1])c3nc-2c(C(=O)[*:2])c(N)c1=O; aThr = C[C@H](O)[C@H](N)C(=O)O; NMeV = CN[C@H](C(=O)O)C(C)C; Sar = CNCC(=O)O

As to `CC1CC(C)(O)CC(C(O)CC2CC(=O)NC(=O)C2)C1=O` (centres undefined), the T/C runs as follows: (dose: 0.14 mg/kg/injection, schedule: Q01DX Z (sc), vehicle: saline) 108 % of control; (dose: 0.24 mg/kg/injection, schedule: Q01DX Z (sc), vehicle: saline) 120 % of control; (dose: 0.39 mg/kg/injection, schedule: Q02DX Z (sc), vehicle: saline) 120 % of control; (dose: 0.4 mg/kg/injection, schedule: Q01DX Z (sc), vehicle: saline) 116 % of control; (dose: 0.65 mg/kg/injection, schedule: Q02DX Z (sc), vehicle: saline) 120 % of control; (dose: 0.67 mg/kg/injection, schedule: Q01DX Z (sc), vehicle: saline) 116 % of control. The T/C was 120 % of control (dose: 1.08 mg/kg/injection, schedule: Q01DX Z (sc), vehicle: saline); 120 % of control (dose: 1.08 mg/kg/injection, schedule: Q02DX Z (sc), vehicle: saline); 110 % of control (dose: 1.08 mg/kg/injection, schedule: Q## X Z (sc), vehicle: saline); 104 % of control (dose: 1.12 mg/kg/injection, schedule: Q01DX Z (sc), vehicle: saline); 120 % of control under setting [1]; 120 % of control (dose: 1.8 mg/kg/injection, schedule: Q02DX Z (sc), vehicle: saline). Further, the T/C runs as follows: (dose: 1.8 mg/kg/injection, schedule: Q## X Z (sc), vehicle: saline) 110 % of control; (dose: 1.87 mg/kg/injection, schedule: Q01DX Z (sc), vehicle: saline) 100 % of control; (dose: 3.0 mg/kg/injection, schedule: Q01DX001 (sc), vehicle: saline) 120 % of control; under setting [2], 110 % of control; (dose: 3.0 mg/kg/injection, schedule: Q## X Z (sc), vehicle: saline) 115 % of control; (dose: 3.11 mg/kg/injection, schedule: Q01DX Z (sc), vehicle: saline) 100 % of control. The T/C was 120 % of control (dose: 5.0 mg/kg/injection, schedule: Q01DX001 (sc), vehicle: saline); 100 % of control (dose: 5.0 mg/kg/injection, schedule: Q01DX Z (sc), vehicle: saline); 115 % of control (dose: 5.0 mg/kg/injection, schedule: Q## X Z (sc), vehicle: saline); 110 % of control (dose: 8.4 mg/kg/injection, schedule: Q02DX Z (sc), vehicle: saline); 120 % of control (dose: 8.4 mg/kg/injection, schedule: Q## X Z (sc), vehicle: saline); 100 % of control (dose: 14.0 mg/kg/injection, schedule: Q02DX Z (sc), vehicle: saline). Besides, the T/C (dose: 14.0 mg/kg/injection, schedule: Q## X Z (sc), vehicle: saline) is 120 % of control.
`CCCCCn1c(C)cc(/C=C\c2ccc3cc(C)ccc3[n+]2C)c1C`: the T/C runs as follows: (dose: 0.23 mg/kg/injection, schedule: Q01DX Z (sc), vehicle: methylcellulose (MC)) 100 % of control; (dose: 0.39 mg/kg/injection, schedule: Q01DX Z (sc), vehicle: methylcellulose (MC)) 100 % of control; (dose: 0.65 mg/kg/injection, schedule: Q01DX Z (sc), vehicle: methylcellulose (MC)) 100 % of control; (dose: 1.08 mg/kg/injection, schedule: Q01DX Z (sc), vehicle: methylcellulose (MC)) 100 % of control; (dose: 1.8 mg/kg/injection, schedule: Q01DX Z (sc), vehicle: methylcellulose (MC)) 100 % of control.
Turning to `CC/C(=C(/CC)c1ccc(O)cc1)c1ccc(O)cc1`, the T/C reads like this: under setting [3], 100 % of control; under setting [4], 100 % of control.
Regarding `COc1cc([C@@H]2c3cc4c(cc3[C@@H](OC3OC5COC(C)OC5C(O)C3O)[C@H]3COC(=O)[C@H]23)OCO4)cc(OC)c1O` (some centres undefined), the T/C reads like this: (dose: 2.0 mg/kg/injection, schedule: Q01DX009 (ip), vehicle: Klucel (hydroxypropylcellulose) (HPC)) 120 % of control; (dose: 8.0 mg/kg/injection, schedule: Q01DX009 (ip), vehicle: Klucel (hydroxypropylcellulose) (HPC)) 160 % of control; (dose: 16.0 mg/kg/injection, schedule: Q01DX009 (ip), vehicle: Klucel (hydroxypropylcellulose) (HPC)) 105 % of control.
As to `Cc1c2oc3c(C)ccc(C(=O)N[C@@H]4C(=O)N[C@H](C(C)C)C(=O)N5CCC[C@H]5C(=O)N(C)CC(=O)N(C)[C@@H](C(C)C)C(=O)O[C@H]4C)c3nc-2c(C(=O)N[C@@H]2C(=O)N[C@H](C(C)C)C(=O)N3CCC[C@H]3C(=O)N(C)CC(=O)N(C)[C@@H](C(C)C)C(=O)O[C@H]2C)c(N)c1=O` (I: [aThr][dV]P[Sar][NMeV] / II: [aThr][dV]P[Sar][NMeV]; ester I:1-I:C, II:1-II:C; linker I:N-II:N via Actinocin(9to1)), the T/C (dose: 0.07 mg/kg/injection, schedule: Q01DX009 (sc), vehicle: saline) is 95 % of control; the T/C (dose: 0.07 mg/kg/injection, schedule: Q01DX Z (sc), vehicle: saline) was 110 % of control; the T/C (dose: 0.15 mg/kg/injection, schedule: Q01DX009 (sc), vehicle: saline) is 103 % of control; the T/C (dose: 0.3 mg/kg/injection, schedule: Q01DX009 (sc), vehicle: saline) is 106 % of control; the T/C (dose: 0.52 mg/kg/injection, schedule: Q01DX Z (sc), vehicle: saline) is 120 % of control; the T/C (dose: 0.86 mg/kg/injection, schedule: Q01DX Z (sc), vehicle: saline) is 120 % of control.
Regarding `CN(C)c1ccc(/C=C2\C=Cc3ccccc32)cc1`, the T/C is 100 % of control (dose: 180.0 mg/kg/injection, schedule: Q01DX Z (sc), vehicle: carboxymethylcellulose (CMC)); 100 % of control (dose: 300.0 mg/kg/injection, schedule: Q01DX Z (sc), vehicle: carboxymethylcellulose (CMC)); 105 % of control (dose: 500.0 mg/kg/injection, schedule: Q01DX Z (sc), vehicle: carboxymethylcellulose (CMC)); 111 % of control (dose: 833.0 mg/kg/injection, schedule: Q01DX Z (sc), vehicle: carboxymethylcellulose (CMC)).
Consider `CCC(=O)OCC1OC(n2cnc3c(=S)nc(N)[nH]c32)C(OC(=O)CC)C1OC(=O)CC` (centres undefined), for which the T/C by setting is: (dose: 5.0 mg/kg/injection, schedule: Q01DX Z (sc), vehicle: carboxymethylcellulose (CMC)) 100 % of control; (dose: 14.0 mg/kg/injection, schedule: Q01DX Z (sc), vehicle: carboxymethylcellulose (CMC)) 109 % of control; (dose: 23.0 mg/kg/injection, schedule: Q01DX Z (sc), vehicle: carboxymethylcellulose (CMC)) 100 % of control.
Consider `CCCCCCCSc1ncnc2nc[nH]c12`, for which the T/C by setting is: under setting [3], 111 % of control; (dose: 180.0 mg/kg/injection, schedule: Q01DX Z (sc), vehicle: methylcellulose (MC)) 111 % of control; under setting [4], 100 % of control; (dose: 500.0 mg/kg/injection, schedule: Q01DX Z (sc), vehicle: methylcellulose (MC)) 100 % of control; (dose: 833.0 mg/kg/injection, schedule: Q01DX Z (sc), vehicle: methylcellulose (MC)) 100 % of control; (dose: 1388.0 mg/kg/injection, schedule: Q01DX Z (sc), vehicle: methylcellulose (MC)) 100 % of control.
For the compound `CCCC(=O)NC1=C(N2CC2)C(=O)C(NC(=O)CCC)=C(N2CC2)C1=O`, the T/C runs as follows: under setting [1], 100 % of control; under setting [2], 111 % of control; (dose: 8.4 mg/kg/injection, schedule: Q01DX Z (sc), vehicle: saline) 183 % of control; (dose: 14.0 mg/kg/injection, schedule: Q01DX Z (sc), vehicle: saline) 150 % of control; (dose: 23.0 mg/kg/injection, schedule: Q01DX Z (sc), vehicle: saline) 122 % of control.
